Patent US4179467A, “Dopamine hydroxylase inhibiting 2-amino-cyclopent-1-ene-1-thiocarboxylic acid-disulfides” (Richter Gedeon Vegyeszeti Gyar Rt., priority 1976, dated 1979)

How the values were obtained:
[1] = system: dopamine-β-hydroxylase; assay: Noradrenaline and dopamine levels of the cerebrum (brain) in rats, % of controls; assay type: in vivo, male Wistar rats; conditions: rat, i.p., 4 hours
Method: (§1) The dopamine-β-hydroxylase inhibiting effects of the new compounds according to the invention were examined by the following tests:
(§2) The tests were performed on male Wistar rats weighing 150 to 200 g. The dopamine-β-hydroxylase inhibiting effects of the compounds were evaluated by determining the change of noradrenaline, dopamine and adrenaline levels of the cerebrum, heart, spleen and adrenal gland. The serotonine and 5-hydroxy-indolylacetic acid levels of the cerebrum were also determined. The measurements were performed as follows:
(§3) The animals were decapitated, the cerebrum, heart, spleen and adrenal gland were removed quickly, and the organs were frozen by placing them on a metal sheet cooled with dry ice. The frozen organs were stored for a maximum of one night at -20° C.
(§4) The organs were weighed in the frozen state and then homogenized in 5.0 ml of 0.4 N perchloric acid containing 0.05% of EDTA-Naa and 0.1% of Na2 S2 O5. The homogenized mixtures were centrifuged as described above for the treatment of adrenal gland, the supernatants were decanted, and the pH was adjusted to 8.0±0.1 with a 0.1 molar tris buffer containing 20 g/l of NaOH and 25 g/l of EDTA-Na2. 100 mg of prepared Al2 O3 (Anton et al.: J. Pharm. Ther. 138, 360 (1962)) were added to the samples, and the mixtures were shaken mechanically for 20 minutes. Thereafter the Al2 O3 was washed with 2×10 ml of distilled water, and noradrenaline was eluted with 1.0 ml of 0.05 N perchloric acid. 0.5 ml samples of the eluate were used for the determination of noradrenaline. Noradrenaline was determined according to the method of Shellenberger et al. (Anal. Biochem. 39, 356 (1971)), with the following modifications of the basic procedure: 0.5 ml of 0.1 molar Na-K-phosphate buffer, containing 9 g/l of EDTA-Na2, were added to 0.5 ml of the eluate, and the catecholamines (noradrenaline in the examination of heart and spleen and noradrenaline and dopamine in the examination of the cerebrum) were oxidized with 0.1 ml of a 0.1 N iodine solution in 5% potassium iodide. After exactly 2 minutes, oxidation was stopped by adding 0.25 ml of a 2.5% sodium sulfite solution in 4.4 N aqueous sodium hydroxide to the mixture. 2 minutes after the introduction of the alkaline sulfite solution, 0.2 ml of concentrated acetic acid was added to the samples, whereupon the pH decreased to 4.4 to 4.5. Thereafter the samples were placed for 5 minutes in a drying oven heated to 100° C., and then the samples were cooled with ice water. The fluorescency of noradrenaline was measured with an OPTON spectrophotometer at wavelengths of 380 nm (excitation) and 490 nm (emission).
The brains were homogenized in 10 parts by volume of 0.4 N perchloric acid. The homogenized mixture was stored at -20° C. overnight; thereafter it was thawed and centrifuged as described above. A sample of the homogenized mixture corresponding to 0.5 g of brain was removed, the pH of the sample was adjusted to 8.0±0.1 with 0.1 molar tris-buffer of the above composition, and the sample was processed as described above for the determination of the noradrenaline content of heart and spleen, with the difference that 1.5 ml of 0.05 N perchloric acid was used as the eluting agent. 0.5 ml of the eluate was used to determine the noradrenaline and dopamine contents. The measurement was performed as described above, with the difference that samples of 0.5 ml were applied for the recording of the flourescence of noradrenaline. The residue was placed for 50 minutes into a drying oven heated to 100° C., thereafter the sample was cooled with ice water, and the fluorescence of dopamine was recorded at wavelengths of 325 nm (excitation) and 380 nm (emission).
In a further test series the serotonine and 5-hydroxy-indolylacetic acid contents were also determined, in addition to the determination of the noradrenaline and dopamine content, from the same sample. […]

[2] = system: serotonine and 5-hydroxy-indolylacetic acid levels of the cerebrum; assay: Serotonine and 5-hydroxy-indolylacetic acid levels of the cerebrum (brain) in rats, % of controls; assay type: in vivo, male Wistar rats; conditions: rat, i.p., 4 hours
Method: as §2, §3
In a further test series the serotonine and 5-hydroxy-indolylacetic acid contents were also determined, in addition to the determination of the noradrenaline and dopamine content, from the same sample. In this instance the brains were homogenized in 10 ml of 75% ethanol, 0.2 ml of EDTA-Na2 and 5% of ascorbic acid were added to the homogenized mixtures, and the homogenized mixtures were maintained at -20° C. overnight. The mixtures were centrifuged as described above, and 5.0 ml samples of the supernatant were removed. The samples were diluted with equal volumes of distilled water, and poured onto ion exchange columns of 0.5×1.5 cm dimensions, filled with buffered Amberlite CG-30 (200 to 400 mesh). The columns were washed with 5 ml of distilled water followed by 1.0 ml of 0.2 N hydrochloric acid, and the first effluent and the aqueous wash were collected for the determination of 5-hydroxy-indolylacetic acid. Elution was continued with a further 1.2 ml quantity of 0.2 N hydrochloric acid in order to remove noradrenaline, dopamine and serotonine. Samples of 0.3 ml were used for the determinations.
Noradrenaline and dopamine were determined by the method of Shellenberger, modified as described above, whereas serotonine was determined by the method of Curzon et al. (Brit. J. Pharmacol. 39, 653 (1970)). The basic method was modified as follows: A 0.5% solution of ortho-phthal(di)aldehyde in absolute ethanol was diluted with […] hydrochloric acid to 50-fold of its original volume, and 0.6 ml of the resulting 0.01% ortho-phthal(di)aldehyde solution were added immediately to 0.5 ml of the serotonine-containing sample. The sample was placed in a hot water bath for 10 minutes, thereafter cooled with tap water, and the flourescence was recorded at wavelengths of 360 nm (excitation) and 490 nm (emission).
5-Hydroxy-indolylacetic acid was determined from the mixture of the first effluent and the aqueous wash. 10 ml of distilled water and 0.2 ml of concentrated hydrochloric acid were added to the mixture, and the sample was poured onto a 0.8×4.0 cm column filled with Sephadex G-10. The column was washed with 15 ml of 0.1 N hydrochloric acid followed by 1.8 to 2.0 ml of 0.02 N aqueous ammonia, and then 5-hydroxy-indolylacetic acid was eluted with further 2.0 ml of the aqueous ammonia. 0.5 ml samples were used in the measurements, and the determination was performed according to the method of Korf et al. (Biochem. Pharmacol. 20, 659 (1971)).
(§5) In the tests disulfiram, 2,2-dipyridyl, bis(1-methyl-4-homopiperazinyl-thiocarbonyl)-disulfide, sodium diethyldithiocarbamate and N-phenyl-N'-(2-thiazolyl)-thiourea were used as reference substances. The values indicated in Table 1 are the percentages in relation to the amine levels of the controls measured in the same tests (±standard error). The statistical calculations were performed on a TPA/i type computer, using Student's t test.

[3] = system: dopamine-β-hydroxylase; assay: Noradrenaline level of heart in rats, % of controls; assay type: in vivo, male Wistar rats; conditions: rat, i.p., 4 hours
Method: as §1, §2, §3, §4, §5

[4] = system: dopamine-β-hydroxylase; assay: Adrenaline level of adrenal gland in rats, % of controls; assay type: in vivo, male Wistar rats; conditions: rat, i.p., 4 hours
Method: as §1, §2, §3
The adrenal glands were freed from fat and homogenized in 3.0 ml of ice-cold 0.4 N perchloric acid. The homogenized mixtures were centrifuged for 10 minutes at 0° C. with a speed of 3200 r.p.m. using a Janetzky K-70 type centrifuge. 0.05 ml samples were taken from the supernatant, and the adrenaline level was determined directly by the method of Laverty et al. (Anal. Biochem. 22, 269 (1968)).
as §5

[5] = Toxicity, LD50, rats; conditions: rat, in vivo, po
[6] = Toxicity, LD50, rabbits; conditions: rabbit, in vivo, po
[7] = system: dopamine-β-hydroxylase; conditions: known compounds, literature; cited from earlier work

Compound: CCN(CC)C(=S)SSC(=S)N(CC)CC [DS, bis(diethylthiocarbamoyl)-disulfide]
- Brain DA level (percentages in relation to the controls) ([1]; 200 mg/kg): 111%
- Brain NA level (percentages in relation to the controls) ([1]; 200 mg/kg): 22.5%
- Brain DA level (percentages in relation to the controls) ([1]; 400 mg/kg): 112%
- Brain NA level (percentages in relation to the controls) ([1]; 400 mg/kg): 24.1%
- Brain SE level (percentages in relation to the controls) ([2]; 200 mg/kg): 122%
- Brain SE level (percentages in relation to the controls) ([2]; 400 mg/kg): 117%
- Heart NA level (percentages in relation to the controls) ([3]; 200 mg/kg): 98%
- Heart NA level (percentages in relation to the controls) ([3]; 400 mg/kg): 102%
- Adrenal gland adrenaline level (% of controls) ([4]; 200 mg/kg): 52%
- Adrenal gland adrenaline level (% of controls) ([4]; 400 mg/kg): 66%
- LD50 [5]: 8600 ± 370 mg/kg
- LD50 [6]: 1800 ± 130 mg/kg
- dopamine-β-hydroxylase inhibiting effects, in words [7]: strong dopamine-β-hydroxylase inhibiting effects
